From patent US7521596B2, “Method for controlling weeds” (Sumitomo Chemical Company, Limited, priority 2004, dated 2009)

Columns and labels:
[1] = tested on: wild-type tobacco line SR-1; assay: Spray test of the present herbicidal compound, wild-type tobacco (negative control); assay type: in vivo, Nicotinia tabacum; conditions: wild type SR-1, score 0 (died) to 3; for average phytotoxicity score (sensitivity to flufenpyr-ethyl): about 2 weeks after spraying, average of 4 individuals; for average phytotoxicity score (sensitivity to carfentrazone-ethyl): applied as AIM HERBICIDE dry flowable
Method: (§1) Seeds of the homozygote lines selected in Example 4 (seeds of lines #17 and #25 of the recombinant tobacco to which plasmid pBI-NdG6-rSt-1609soy has been introduced, and seeds of the line 1584soy#16 of the recombinant tobacco to which plasmid pBI-NdG6-rSt-1584soy has been introduced) were aseptically seeded on MS agar medium containing 100 mg/L kanamycin. Also, seeds of the wild-type tobacco line SR-1 were aseptically seeded on MS agar medium. After about 2 weeks, germinated seedlings were observed.
(§2) Germinated individuals were transplanted to growing pots containing horicultural soil (Kureha Engei Baido manufactured by Kureha Chemical Industry Co., Ltd.), acclimated to the external environment in a growth chamber, then grown for about 2 weeks at 23° C., 23 hours of day length in a growth chamber. Thus obtained plants were applied to the spray test of the present herbicidal compound, flufenpyr-ethyl.
(§3) Flufenpyr-ethyl was dissolved in Solvesso cocktail mixed Solvesso 200 (manufactured by Valent) and Sorpol 3816 (manufactured Sumitomo Chemical Co., Ltd.) at the ratio of 87.5:10 such that flufenpyr-ethyl was respectively contained 0.89 mg or 1.78 mg in 0.5 mL Solvesso cocktail. The spray liquid of flufenpyr-ethyl was prepared as the aqueous solution containing the Solvesso cocktail of 2.5% concentration in which the compound was dissolved and Agri dex of 1% concentration (manufactured by Valent) as adjuvant.
(§4) Spray of the spray liquid to the plant above described was carried out, by using running automatic spray machine (manufactured by Nambasekkei), such that spray liquid 20 mL was sprayed to the recombinant tobacco seedlings put at 0.9 square meter of the sprayed area in a uniform way. After about 2 weeks, the sensitivity of the applied recombinant tobacco line to flufenpyr-ethyl was compared to the sensitivity of the wild-type tobacco line SR-1 to flufenpyr-ethyl. In the above spray test, 4 individuals of the recombinant tobacco were used with respect to each applied amount of flufenpyr-ethyl. The sensitivity of the recombinant tobacco to flufenpyr-ethyl was decided by scoring it based on the index below, and calculating the average of the score of 4 individuals with respect to each recombinant tobacco line and applied amount for it. The same spray test of wild-type line SR-1 was carried out as a negative control.
(§5) <Scoring Index Based on the Degree of Phytotoxicity as Dying of the Individual and Browning or Whitening of the Leaves or Stems Caused by Compound Spraying>
(§6) As to the homozygote line 1609soy#25 selected in Example 4 from among the recombinant tobacco lines to which a DNA having a nucleotide sequence encoding the amino acid sequence of SEQ ID NO: 1 has been introduced, and the wild-type tobacco line SR-1, their sensitivities to the compound (I), carfentrazone-ethyl and sulfentrazone were investigated according to the method described in Example 5 (evaluation by scoring index based on the degree of phytotoxicity as dying of the individual and browning or whitening of the leaves or stems caused by compound spraying). […]

[2] = tested on: recombinant tobacco line 1609soy#17 (cytochrome P450 of SEQ ID NO: 1 introduced); assay: Spray test of the present herbicidal compound, recombinant tobacco line 1609soy#17; assay type: in vivo, Nicotinia tabacum; conditions: about 2 weeks after spraying, average of 4 individuals, score 0 (died) to 3
Method: as §1, §2
(§7) Flufenpyr-ethyl was dissolved in Solvesso cocktail mixed Solvesso 200 (manufactured by Valent) and Sorpol 3816 (manufactured Sumitomo Chemical Co., Ltd.) at the ratio of 87.5:10 such that flufenpyr-ethyl was respectively contained 0.89 mg or 1.78 mg in 0.5 mL Solvesso cocktail. […]

[3] = tested on: recombinant tobacco line 1609soy#25 (cytochrome P450 of SEQ ID NO: 1 introduced); assay: Spray test of the present herbicidal compound, recombinant tobacco line 1609soy#25; assay type: in vivo, Nicotinia tabacum; conditions: score 0 (died) to 3; for average phytotoxicity score (sensitivity to flufenpyr-ethyl): about 2 weeks after spraying, average of 4 individuals; for average phytotoxicity score (sensitivity to carfentrazone-ethyl): applied as AIM HERBICIDE dry flowable
Method: as §1, §2, §3, §4, §5, §6

[4] = tested on: recombinant tobacco line 1584soy#16 (cytochrome P450 of SEQ ID NO: 2 introduced); assay: Spray test of the present herbicidal compound, recombinant tobacco line 1584soy#16; assay type: in vivo, Nicotinia tabacum; conditions: about 2 weeks after spraying, average of 4 individuals, score 0 (died) to 3
Method: as §1, §2, §7

[5] = tested on: wild-type soybean line (cv. Jack); assay: Spray test of the present herbicidal compound, wild-type soybean (negative control); assay type: in vivo; conditions: sprayed 21st day after seeding, scored 2 weeks after spraying, score 0 (died) to 3
Method: (§8) Seeds of these lines were seeded and grown in growing pots containing horicultural soil (Kureha Engei Baido manufactured by Kureha Chemical Industry Co. Ltd.) When trifoliate leaves were developed after germination, the seedlings were transplanted to growing pots containing the soil prepared by mixing equal amount of the Kureha Engei Baido and field soil, and then grown in a greenhouse according to the method of Example 17 of WO0304370 to obtain seeds of T2 generation of each line. Among the obtained T2 generations, seeds of T2 generation of the line J18 (seeds of the recombinant soybean) were seeded in growing pots containing horicultural sail (Kureha Engei Baido manufactured by Kureha Chemical Industry Co., Ltd.) and grown. According to the above method described in Example 5, it was sprayed carfentrazone-ethyl to the seedling on the 21st day after seeding, and compared the sensitivity to carfentrazone-ethyl of the recombinant soybean with the sensitivity to carfentrazone-ethyl of wild-type soybean line (cv. Jack) at 2 weeks after spraying. The spray liquid of the above herbicidal compound was prepared as follows.
(§9) The spray liquid was prepared by diluting dry flowable preparation of carfentrazone-ethyl (AIM™ HERBICIDE manufactured by FMC, containing 40% (w/w) of carfentrazone-ethyl) with Agri dex (manufactured by Valent) 1% aqueous solution to be contained 1.79 mg, 3.57 mg or 7.14 mg of carfentrazone-ethyl in the spray liquid.
(§10) The sensitivity of the recombinant soybean to carfentrazone-ethyl was decided by scoring it based on the index below, and calculating the average of the scores with respect to each recombinant soybean line and applied amount for it. The same spray test of the wild-type soybean line (cv. Jack) was carried out as a negative control.
as §5

[6] = tested on: recombinant soybean line J18 (cytochrome P450 of SEQ ID NO: 1 introduced); assay: Spray test of the present herbicidal compound, recombinant soybean line J18; assay type: in vivo; conditions: for average phytotoxicity score (sensitivity to carfentrazone-ethyl): J18 (T2 generation), sprayed 21st day after seeding, scored 2 weeks after spraying, score 0 (died) to 3
Method: as §8, §9, §10, §5

## CCOC(=O)COc1cc(-n2ncc(C(F)(F)F)c(C)c2=O)c(F)cc1Cl [flufenpyr-ethyl]
[1]; 0.89 mg/20 mL spray liquid
  average phytotoxicity score (sensitivity to flufenpyr-ethyl): 1.7
[1]; 1.78 mg/20 mL spray liquid
  average phytotoxicity score (sensitivity to flufenpyr-ethyl): 0.0
[2]; 0.89 mg/20 mL spray liquid
  average phytotoxicity score (sensitivity to flufenpyr-ethyl): 3.0
[2]; 1.78 mg/20 mL spray liquid
  average phytotoxicity score (sensitivity to flufenpyr-ethyl): 3.0
[3]; 0.89 mg/20 mL spray liquid
  average phytotoxicity score (sensitivity to flufenpyr-ethyl): 3.0
[3]; 1.78 mg/20 mL spray liquid
  average phytotoxicity score (sensitivity to flufenpyr-ethyl): 3.0
[4]; 0.89 mg/20 mL spray liquid
  average phytotoxicity score (sensitivity to flufenpyr-ethyl): 3.0
[4]; 1.78 mg/20 mL spray liquid
  average phytotoxicity score (sensitivity to flufenpyr-ethyl): 3.0

## CCOC(=O)C(Cl)Cc1cc(-n2nc(C)n(C(F)F)c2=O)c(F)cc1Cl (stereo not drawn) [carfentrazone-ethyl]
[1]; 0.446 mg/20 mL spray liquid
  average phytotoxicity score (sensitivity to carfentrazone-ethyl): 1.0
[1]; 0.893 mg/20 mL spray liquid
  average phytotoxicity score (sensitivity to carfentrazone-ethyl): 0.0
[1]; 4.46 mg/20 mL spray liquid
  average phytotoxicity score (sensitivity to carfentrazone-ethyl): 0.0
[3]; 0.446 mg/20 mL spray liquid
  average phytotoxicity score (sensitivity to carfentrazone-ethyl): 2.5
[3]; 0.893 mg/20 mL spray liquid
  average phytotoxicity score (sensitivity to carfentrazone-ethyl): 1.8
[3]; 4.46 mg/20 mL spray liquid
  average phytotoxicity score (sensitivity to carfentrazone-ethyl): 1.5
[5]; 1.79 mg/20 mL spray liquid
  average phytotoxicity score (sensitivity to carfentrazone-ethyl): 1.0
[5]; 3.57 mg/20 mL spray liquid
  average phytotoxicity score (sensitivity to carfentrazone-ethyl): 0.9
[5]; 7.14 mg/20 mL spray liquid
  average phytotoxicity score (sensitivity to carfentrazone-ethyl): 0.3
[6]; 1.79 mg/20 mL spray liquid
  average phytotoxicity score (sensitivity to carfentrazone-ethyl): 1.8
[6]; 3.57 mg/20 mL spray liquid
  average phytotoxicity score (sensitivity to carfentrazone-ethyl): 1.4
[6]; 7.14 mg/20 mL spray liquid
  average phytotoxicity score (sensitivity to carfentrazone-ethyl): 0.9
[6]; line J18, 1.79, 3.57 or 7.14 mg in the spray liquid
  phytotoxicity / resistance as compared to the wild-type plant cv. Jack: the phytotoxicity was reduced and remarkable improvement of the resistance was recognized
